According to patent US9976141B2, “Compositions and methods for inhibiting gene expression of Hif2alpha” (Arrowhead Madison Inc., priority 2015, dated 2018):
Strand notation (5' to 3'): a small letter for the sugar, then the base; units joined by * are phosphorothioate-linked, units joined directly phosphodiester-linked; [ ] holds rarer units or linkages, { } end groups; capitals alone tell only the bases. {Alk-C6-SMPT-C6} = Alk-C6-SMPT-C6 linker modification, as named by the publication; [invdT] = inverted (3'-3') thymidine; e = 2'-O-(2-methoxyethyl) (MOE); m = 2'-O-methyl; f = 2'-fluoro

System: human (tumor) Hif2α (EPAS1) mRNA
Experiment: Hif2α knockdown in orthotopic RCC tumor bearing mice, single injection of RNAi trigger-delivery polymer conjugate, RT-qPCR (Table 7)
Type: in vivo
Settings: single tail vein injection, relative to isotonic glucose
Procedure: A pCR3.1 expression vector expressing the reporter gene secreted alkaline phosphatase (SEAP) under the CMV promoter was prepared by directional cloning of the SEAP coding sequence PCR amplified from Clontech's pSEAP2-basic vector. Convenient restriction sites were added onto primers used to amplify the SEAP coding sequence for cloning into the pCR3.1 vector (Invitrogen). The resultant construct pCR3-SEAP was used to create a SEAP-expressing A498 ccRCC cell line. Briefly, pCR3-SEAP plasmid was transfected into A498 ccRCC cells by electroporation following manufacturer's recommendation. Stable transfectants were selected by G418 resistance. Selected A498-SEAP clones were evaluated for SEAP expression and integration stability.
Female athymic nude mice were anesthetized with ˜3% isoflourane and placed in the right lateral decubitus position. A small, 0.5-1 cm, longitudinally abdominal incision in the left flank was made. Using a moist cotton swab, the left kidney was lifted out of the peritoneum and gently stabilized. Just before injection, a 1.0 ml syringe was filled with the cell/Matrigel mixture and a 27 gauge needle catheter was attached to the syringe tip. The filled syringe was then attached to a syringe pump (Harvard Apparatus, model PHD2000) and primed to remove air. The tip of a 27-gauge needle catheter attached to a syringe was inserted just below the renal capsule near the caudal pole and the tip of the needle was then carefully advanced cranially along the capsule 3-4 mm. A 10 μl aliquot of 2:1 (vol:vol) cell/matrigel mixture containing about 300,000 cells was slowly injected into the kidney parenchyma using a syringe pump. The needle was left in the kidney for 15-20 seconds to ensure the injection was complete. The needle was then removed from the kidney and a cotton swab was placed over the injection site for 30 seconds to prevent leakage of the cells or bleeding. The kidney was then gently placed back into the abdomen and the abdominal wall was closed. Serum was collected every 7-14 days after implantation to monitor tumor growth using a commercial SEAP assay kit. For most studies, tumor mice were used 5-6 weeks after implantation, when tumor measurements were typically around 4-8 mm.
RGD targeted HiF2α-RNAi trigger delivery conjugates. Delivery polymers were modified using RGD-PEG-HyNic, RGD-PEG-ACit-PNP, or RDG-PEG-FCitFP-TFP and PEG-dipeptide modifying agents. The indicated amount of polymer 126 or 100A polymer was modified with 8×PEG12-ACit-PABC-PNP/0.5× aldehyde-PEG24-FCit-PABC-PNP (with RGD mimic #1-PEG-HyNic using protocol #1) and the indicated amount of the indicated Hif2α RNAi trigger. Polymer 064 was modified according to protocol 7. Kidney RCC tumor-bearing mice were generated as described and treated with a single tail vein injection of isotonic glucose (G1) or the indicated Hif2α RNAi trigger-delivery polymer conjugate. Mice were euthanized at the indicated time after injection and total RNA was prepared from kidney tumor using Trizol reagent following manufacturer's recommendation. Relative HiF2α mRNA levels were determined by RT-qPCR as described below and compared to mice treated with delivery buffer (isotonic glucose) only.
In preparation for quantitative PCR, total RNA was isolated from tissue samples homogenized in TriReagent (Molecular Research Center, Cincinnati, Ohio) following the manufacturer's protocol. Approximately 500 ng RNA was reverse-transcribed using the High Capacity cDNA Reverse Transcription Kit (Life Technologies). For human (tumor) Hif2α (EPAS1) expression, pre-manufactured TaqMan gene expression assays for human Hif2α (Catalog #4331182) and CycA (PPIA) Catalog #: 4326316E) were used in biplex reactions in triplicate using TaqMan Gene Expression Master Mix (Life Technologies) or VeriQuest Probe Master Mix (Affymetrix). […]

[1] = RNAi trigger 80 μg, polymer 126 400 μg
[2] = RNAi trigger 50 μg, polymer 064 125 μg
[3] = RNAi trigger 150 μg, polymer 100A 300 μg

## AD01030 (antisense TUUCAUGAAAUCGUUACGUTT; sense ACGUAACGAUUUCAUGAAAT; Hif2alpha RNAi agent antisense strand; modified_base 2,4,6,8,10,12,14,16,18 /mod_base = “2′-deoxy-2′-fluoro corresponding nucleoside”; modified_base 3,5,9,11,13,15,17,19 /mod_base = “2′-O-methyl corresponding nucleoside”; modified_base 7 /mod_base = “2′-3′ seco corresponding nucleotide”; modified_base 21 /mod_base = “5′-phosphorothioate corresponding nucleotide”; Hif2alpha RNAi agent sense strand; modified_base 1,3,5,7,9,11,13,15,17,19 /mod_base = “2′-deoxy-2′-fluoro corresponding nucleoside”; modified_base 2,4,6,8,10,12,14,16,18 /mod_base = “2′-O-methyl corresponding nucleoside”; modified_b)
[1]
  Relative Expression day 4 (Hif2α mRNA in kidney tumor): 0.47

## AD01027 (antisense TAAAUCGUUACGUUGACAGTT; sense CUGUCAACGUAACGAUUUAT; Hif2alpha RNAi agent antisense strand; modified_base 2,4,6,8,10,12,14,16,18 /mod_base = “2′-deoxy-2′-fluoro corresponding nucleoside”; modified_base 3,5,9,11,13,15,17,19 /mod_base = “2′-O-methyl corresponding nucleoside”; modified_base 7 /mod_base = “2′-3′ seco corresponding nucleotide”; modified_base 21 /mod_base = “5′-phosphorothioate corresponding nucleotide”; Hif2alpha RNAi agent sense strand; modified_base 1,3,5,7,9,11,13,15,17,19 /mod_base = “2′-deoxy-2′-fluoro corresponding nucleoside”; modified_base 2,4,6,8,10,12,14,16,18 /mod_base = “2′-O-methyl corresponding nucleoside”; modified_b)
[1]
  Relative Expression day 4 (Hif2α mRNA in kidney tumor): 0.92

## AD03263 (antisense AUUCAUGAAAUCGUUACGUUG; sense ACGUAACGAUUUCAUGAAUN; Hif2alpha RNAi agent antisense strand; modified_base 2,8,10,14 /mod_base = “2′-deoxy-2′-fluoro corresponding nucleoside”; modified_base 1,3,4,5,6,7,9,11,12,13,15,16,17,18,19,20,21 /mod_base = “2′-O-methyl corresponding nucleoside”; modified_base 2,3,20,21 /mod_base = “5′-phosphorothioate corresponding nucleotide”; Hif2alpha RNAi agent sense strand; modified_base 7,8,9 /mod_base = “2′-deoxy-2′-fluoro corresponding nucleoside”; modified_base 1,2,3,4,5,6,10,11,12,13,14,15,16,17,18,19 /mod_base = “2′-O-methyl corresponding nucleoside”; modified_base 20 /mod_base = “3′-3′-linked abasic site”; mod)
[2]
  Relative Expression day 4 (Hif2α mRNA in kidney tumor): 0.134

## AD01405 (antisense TUUCAUGAAAUCGUUACGUCGGCUAU; sense UAUAUCGACGUAACGAUUUCAUGAAA; Hif2alpha RNAi agent antisense strand; modified_base 25 modified base = “2′-hydroxy corresponding nucleoside”; modified_base 2,4,6,10,12,14,16,18,20 /mod_base = “2′-deoxy-2′-fluoro corresponding nucleoside”; modified_base 3,5,7,9,11,13,15,17,19,21,22,23,24,26 /mod_base = “2′-O-methyl corresponding nucleoside”; modified_base 8 /mod_base = “2′-3′ seco corresponding nucleotide”; modified_base 2,3,23,; Hif2alpha RNAi agent sense strand; modified_base 2,4 modified base = “2′-hydroxy corresponding nucleoside”; modified_base 6,8,10,12,14,16,18,20,22,24,26 /mod_base = “2′-deoxy-2′-fluoro correspondi)
[3]
  Relative Expression day 4 (Hif2α mRNA in kidney tumor): 0.51

## AD03261 (antisense mA*fU*mUmCmAmUmGfAmAfAmUmCmGfUmUmAmCmGmU*mU*mG; sense ACGUAACGAUUUCAUGAAT; siRNA; sense: sugars from the 5' end e2 m4 f3 m8 e2, [invdT] at 3' end, linkages s1 o18 (s phosphorothioate, o phosphodiester), 5' {Alk-C6-SMPT-C6}, methylation of C not given here; further chemistry not fully specified)
[2]
  Relative Expression day 4 (Hif2α mRNA in kidney tumor): 0.177

## AD01409 (antisense TUUCAUGAAAUCGUUACGUCGGCUAU; sense UAUAUCGACGUAACGAUUUCAUGAAA; Hif2alpha RNAi agent antisense strand; modified_base 25 modified base = “2′-hydroxy corresponding nucleoside”; modified_base 2,4,6,8,10,12,14,16,18,20 /mod_base = “2′-deoxy-2′-fluoro corresponding nucleoside”; modified_base 3,5,7,11,13,15,17,19,21,22,23,24,26 /mod_base = “2′-O-methyl corresponding nucleoside”; modified_base 9 /mod_base = “2′-3′ seco corresponding nucleotide”; modified_base 2,3,23,; Hif2alpha RNAi agent sense strand; modified_base 2,4 modified base = “2′-hydroxy corresponding nucleoside”; modified_base 6,8,10,12,14,16,18,20,22,24,26 /mod_base = “2′-deoxy-2′-fluoro correspondi)
[3]
  Relative Expression day 4 (Hif2α mRNA in kidney tumor): 0.55

## AD01022 (antisense TGUAAAACAAUUGUGUACUTT; sense AGUACACAAUUGUUUUACAT; Hif2alpha RNAi agent antisense strand; modified_base 2,4,6,8,10,12,14,16,18 /mod_base = “2′-deoxy-2′-fluoro corresponding nucleoside”; modified_base 3,5,7,9,11,13,15,17,19 /mod_base = “2′-O-methyl corresponding nucleoside”; modified_base 21 /mod_base = “5′-phosphorothioate corresponding nucleotide”; Hif2alpha RNAi agent sense strand; modified_base 1,3,5,7,9,11,13,15,17,19 /mod_base = “2′-deoxy-2′-fluoro corresponding nucleoside”; modified_base 2,4,6,8,10,12,14,16,18 /mod_base = “2′-O-methyl corresponding nucleoside”; modified_base 20 /mod_base = “3′-3′-linked nucleotide”; modified_base 1 /mo)
[1]
  Relative Expression day 4 (Hif2α mRNA in kidney tumor): 0.53
